Measured values taken from PMC2964311, “The Human Host Defense Peptide LL-37 Interacts with Neisseria meningitidis Capsular Polysaccharides and Inhibits Inflammatory Mediators Release” (PLoS ONE, 2010).
In brackets after ≈: the same amount, converted by molar mass. Like-named read-outs stand apart in the source and are kept apart here. Residues, ends and D or L forms follow the SMILES beside them. No end group written: not given here. *: point of attachment. Lauroyl = CCCCCCCCCCCC(=O)*

Legend:
[1] = system: N. gonorrhoeae strain FA 19; conditions: for MIC activity against gonococci (in words): N. gonorrhoeae FA19
Description: The peptides were dissolved in 0.01 % (v/v) acetic acid and stored at −20°C prior to use. Antibacterial assays were performed as described previously and used N. gonorrhoeae strain FA 19. All assays were performed in triplicate and values are reported as the minimal inhibitory concentration (MIC).

THP-1 cells [2] = assay: IL-6 release from THP-1 cells induced with meningococcal CPS pre-incubated with peptide (ELISA); type: cell-based, human; conditions: THP-1 cells, CPS-lpxA 100 µg to 50 ng/ml with 10 µg/ml synthetic analogs; Figure 3B
Description: Human THP-1 (macrophage-like cells) and murine RAW 264.7 (TLR4-sufficient), 23ScCr (TLR4-deficient) and HEK-TLR2/6/CD14 stably transfected cell lines were stimulated with meningococcal CPS polymers with or without pre-incubation with LL-37 and its analogs (Table 1). CPS polymers were purified from the LPS-deficient serogroup B Neisseria meningitidis lpxA mutant as well as other meningococcal serogroups A, B, C, W135 and Y. Purified CPS samples were freshly dissolved in pyrogen-free sterile H2O at 1 mg/ml stock concentration and vortexed for 2 min. Working CPS concentrations (ranging from 100 µg/ml to 50 ng/ml) were made in duplicate wells using sterile PBS by serial fold dilutions in the 96-well tissue culture plates (Becton Dickinson, Franklin Lakes, NJ) at 50 µl final volumes. […] Freshly grown THP-1 cells and HEK-TLR2/6 transfected cells as well as murine macrophages, each adjusted to 10^6 cell/ml and 250 µl aliquots were dispensed into each well at final 250×10^3 cell density in the designated 96-well plates. The plates were incubated overnight at 37°C with 5% CO2 and humidity. […]
(§1) The cytokines TNFα, IL-6 and CXCL10 (IP-10), released from THP-1 cells, and IL-8, released from HEK-TLR2 transfected cells stimulated with meningococcal CPS polymers, were quantified by DuoSet ELISA (R&D Systems) as previously described.

THP-1 cells [3] = assay: TNFα release from THP-1 cells induced with meningococcal CPS pre-incubated with peptide (ELISA); type: cell-based, human
Description: Human THP-1 (macrophage-like cells) and murine RAW 264.7 (TLR4-sufficient), 23ScCr (TLR4-deficient) and HEK-TLR2/6/CD14 stably transfected cell lines were stimulated with meningococcal CPS polymers with or without pre-incubation with LL-37 and its analogs (Table 1). CPS polymers were purified from the LPS-deficient serogroup B Neisseria meningitidis lpxA mutant as well as other meningococcal serogroups A, B, C, W135 and Y. Purified CPS samples were freshly dissolved in pyrogen-free sterile H2O at 1 mg/ml stock concentration and vortexed for 2 min. Working CPS concentrations (ranging from 100 µg/ml to 50 ng/ml) were made in duplicate wells using sterile PBS by serial fold dilutions in the 96-well tissue culture plates (Becton Dickinson, Franklin Lakes, NJ) at 50 µl final volumes. […] Freshly grown THP-1 cells and HEK-TLR2/6 transfected cells as well as murine macrophages, each adjusted to 10^6 cell/ml and 250 µl aliquots were dispensed into each well at final 250×10^3 cell density in the designated 96-well plates. The plates were incubated overnight at 37°C with 5% CO2 and humidity. Supernatants from stimulated cells were harvested and stored at −20°C until use.
as §1

RAW 264.7 macrophages = assay: Nitric oxide release from RAW 264.7 macrophages induced with meningococcal CPS (Griess method); type: cell-based, murine; conditions: RAW 264, serogroup A CPS (laboratory NMA or vaccine grade MAPS 20 µg/ml) pre-incubated with 4 µg/ml analogs; nitrite after 24 h; Figure S1A, S1B
Description: (§2) Human THP-1 (macrophage-like cells) and murine RAW 264.7 (TLR4-sufficient), 23ScCr (TLR4-deficient) and HEK-TLR2/6/CD14 stably transfected cell lines were stimulated with meningococcal CPS polymers with or without pre-incubation with LL-37 and its analogs (Table 1). CPS polymers were purified from the LPS-deficient serogroup B Neisseria meningitidis lpxA mutant as well as other meningococcal serogroups A, B, C, W135 and Y. Purified CPS samples were freshly dissolved in pyrogen-free sterile H2O at 1 mg/ml stock concentration and vortexed for 2 min. Working CPS concentrations (ranging from 100 µg/ml to 50 ng/ml) were made in duplicate wells using sterile PBS by serial fold dilutions in the 96-well tissue culture plates (Becton Dickinson, Franklin Lakes, NJ) at 50 µl final volumes. Cationic peptides (2, 4 or 8 µg/ml) or PBS equivalent volumes were added to designated wells and pre-incubated for 30 min at 37°C. Freshly grown THP-1 cells and HEK-TLR2/6 transfected cells as well as murine macrophages, each adjusted to 10^6 cell/ml and 250 µl aliquots were dispensed into each well at final 250×10^3 cell density in the designated 96-well plates. The plates were incubated overnight at 37°C with 5% CO2 and humidity. Supernatants from stimulated cells were harvested and stored at −20°C until use.
Freshly grown adherent RAW 246.7 or 23ScCr (TLR4-deficient) macrophages were harvested, washed and re-suspended in Dulbecco's complete media, counted and adjusted to 10^6 cell/ml. 250 µl aliquots were then dispensed into each well of a 96-well plate at final 250×10^3 cell density prior to stimulation with purified CPS polymers with or without cationic peptides. The induced RAW 264.7 or 23ScCr macrophages were incubated overnight at 37°C with 5% CO2 and supernatants were harvested and saved. Nitric oxide release was quantified using the Greiss chemical method as previously described.

[4] = system: ScCr (TLR4-deficient) murine macrophages; assay: Nitric oxide release from 23ScCr (TLR4-deficient) macrophages induced with meningococcal CPS (Griess method); type: cell-based; conditions: ScCr cells, 20 µg/ml CPS of serogroups A, B, C, Y, W135 pre-incubated 30 min with 4 µg/ml LL-37 analogs or 20 µg/ml ampicillin or erythromycin; overnight; Figure 6
Description: as §2, with “Freshly grown THP-1 cells and HEK-TLR2/6 transfected cells as well as murine macrophages, each adjusted to 10^6 cell/ml and 250 µl aliquots were dispensed into each well at final 250×10^3 cell density in the designated 96-well plates. The plates were incubated overnight at 37°C with 5% CO2 and humidity. Supernatants from stimulated cells were harvested and stored at −20°C until use.” left out
Freshly grown adherent RAW 246.7 or 23ScCr (TLR4-deficient) macrophages were harvested, washed and re-suspended in Dulbecco's complete media, counted and adjusted to 10^6 cell/ml. […] Nitric oxide release was quantified using the Greiss chemical method as previously described.

purified CPS polymers = assay: Neutralizing activity against purified CPS polymers (pro-inflammatory capacity of CPS); type: cell-based, Neisseria meningitidis; conditions: compared with LL-37
Description: as §2

NFκB = assay: Inducible NFκB dual luciferase reporter in HEK-TLR2/6 cells stimulated with CPS-lpxA; type: cell-based, human; conditions: CPS-lpxA (20 µg/ml) pre-incubated with analogs (4 µg/ml) 30 min, induction 5 h, firefly normalized to Renilla, Figure 7A
Description: To determine the signaling pathways induced upon meningococcal CPS recognition, a transcription factors array (Cignal Finder™ 10-Pathway Reporter Arrays, SABiosciences, Fredrick, MD) consisting of 10 dual-luciferase reporters assays were used according to the manufacturer instructions. Each of the 10 reporter assays encodes for an inducible transcription factor responsive firefly luciferase reporter and constitutively expressing Renilla construct in 40∶1 ratio. Briefly, DNA reporter master mixes were prepared in SureFect transfection reagent (SABiosciences) diluted in Opti-MEM media without serum or antibiotics and 25 µl/well were dispensed into 96-well white tissue culture plates. For reverse transfection, freshly grown cells were counted and adjusted to 1×10^6 cells/ml in Opti-MEM without serum or antibiotics. 100 µl of cells (100×10^3 cells/well) were laid over the DNA reporters in 96-well plates and incubated overnight at 37°C with 5% CO2. Transfection media were removed and replaced with 150 µl of fresh D-MEM supplemented with 10% FBS and incubated again overnight at 37°C. Cells were then induced with meningococcal CPS polymers or LOS doses for 5 h and dual-luciferase reporter activity was determined using Dual-Luciferase reporter assay system (Promega Corporation, Madison, WI) following the manufacturer instructions. […]

Compound: CCCCCCCCCCCC(=O)N[C@@H](Cc1ccccc1)C(=O)N[C@@H](CCCCN)C(=O)N[C@@H](CCCNC(=N)N)C(=O)N[C@H](C(=O)N[C@H](C(=O)N[C@@H](CCC(N)=O)C(=O)N[C@@H](CCCNC(=N)N)C(=O)N[C@H](C(=O)N[C@@H](CCCCN)C(=O)N[C@@H](CC(N)=O)C(=O)N[C@@H](Cc1ccccc1)C(=O)N[C@@H](CC(C)C)C(=O)N[C@@H](CCCNC(=N)N)C(=O)N[C@@H](CC(N)=O)C(=O)N[C@@H](CC(C)C)C(=O)N[C@H](C(=O)O)C(C)C)[C@@H](C)CC)C(C)C)[C@@H](C)CC [C12LL-17-32 D/N] (Lauroyl-FKRIVQRIKNFLRNLV-OH; C-terminus assumed)
- MIC ([1]; strain FA 19): 3.9 µg/mL (≈ 1.75 µM)
- Inhibition of IL-6 release (interaction with CPS polymers) (THP-1 cells [2]): enhanced interaction with meningococcal CPS polymers
- Inhibition of TNFα release (interaction with CPS polymers) (THP-1 cells [3]; THP-1 cells, CPS-lpxA 100 µg to 50 ng/ml with 10 µg/ml synthetic analogs, Figure 3A): enhanced interaction with meningococcal CPS polymers

Compound: CC1(C)S[C@@H]2[C@H](NC(=O)[C@H](N)c3ccccc3)C(=O)N2[C@H]1C(=O)O [ampicillin]
- Inhibition of CPS polymers (nitric oxide release) (RAW 264.7 macrophages): this was not seen
- Nitric oxide release induced by various meningococcal CPS [4]: this inhibition was not observed

Compound: CC[C@H]1OC(=O)[C@H](C)[C@@H](O[C@H]2C[C@@](C)(OC)[C@@H](O)[C@H](C)O2)[C@H](C)[C@@H](O[C@@H]2O[C@H](C)C[C@H](N(C)C)[C@H]2O)[C@](C)(O)C[C@@H](C)C(=O)[C@H](C)[C@@H](O)[C@]1(C)O [erythromycin]
- Nitric oxide release induced by various meningococcal CPS [4]: this inhibition was not observed

Compound: EKIGKEFKRIVQRIKDFLRNLVPRTES [LL-11-37]
- MIC ([1]; strain FA 19): 7.8 µg/mL

Compound: FKRIVQRIKDFLRNLV [LL-17-32]
- MIC ([1]; strain FA 19): 3.9 µg/mL

Compound: FKRIVQRIKNFLRNLV [LL-17-32 D/N]
- MIC ([1]; strain FA 19): 3.9 µg/mL

Compound: LLGDFFDESEEEIGEEFEDIVQDIEDFLDNLVPDTES [LL-37 R/D-K/E]
- MIC ([1]; strain FA 19): >1000 µg/mL

Compound: LLGDFFDKSKEKIGKEFKDIVQDIKDFLDNLVPDTES [LL-37 R/D]
- MIC ([1]; strain FA 19): 125 µg/mL

Compound: LLGDFFRASAEAIGAEFARIVQRIADFLRNLVPRTES [LL-37 K/A]
- MIC ([1]; strain FA 19): >1000 µg/mL

Compound: LLGDFFRESEEEIGEEFERIVQRIEDFLRNLVPRTES [LL-37 K/E]
- MIC ([1]; N. gonorrhoeae FA19 (non-encapsulated), assays in triplicate): > 1000 µg/mL
- Neutralizing activity against purified CPS polymers (purified CPS polymers): reduced neutralizing activity

Compound: LLGDFFRKSKEKIGKEF [LL-1-17]
- MIC ([1]; strain FA 19): >1000 µg/mL

Compound: LLGKFFKKSKKKIGKKFKKIVQKIKKFLKNLVPKTKS [LL-37 K]
- MIC activity against gonococci (in words) [1]: retained excellent MIC activity
- MIC ([1]; strain FA 19): 7.8 µg/mL
- Neutralizing activity against purified CPS polymers (purified CPS polymers): did not enhance the neutralizing activity

Compound: LLGRFFRRSRRRIGRRFRRIVQRIRRFLRNLVPRTRS [LL-37 R]
- MIC activity against gonococci (in words) [1]: retained excellent MIC activity
- MIC ([1]; strain FA 19): 15.6 µg/mL
- Neutralizing activity against purified CPS polymers (purified CPS polymers): did not enhance the neutralizing activity

Compound: Polymyxin B
- Inhibition of CPS polymers (nitric oxide release) (RAW 264.7 macrophages): inhibited CPS polymers
- CPS induced NFκB induction (luciferase reporter) (NFκB): able to inhibit
- TNFα release (THP-1 cells [3]; THP-1 cells induced with the CPS-lpxA-analog complexes of the NFκB experiment, Figure 7B): decreased TNFα release
